Laboratory results reported in ChEMBL document CHEMBL5465560, “Selectivity Literature for EUbOPEN Chemogenomic Library” (2024).

Key:
[1] = target: Serine/threonine-protein kinase MRCK alpha (Homo sapiens) (UniProt Q5VT25); conditions: at 10 µM
[2] = target: T1, N-lysine methyltransferase KMT5A (Homo sapiens) (UniProt Q9NQR1); test: Selectivity interaction (Methyltransferase screen (Scintillation proximity assays)) EUB0000255b SETD8
T1 sequence (whole entry): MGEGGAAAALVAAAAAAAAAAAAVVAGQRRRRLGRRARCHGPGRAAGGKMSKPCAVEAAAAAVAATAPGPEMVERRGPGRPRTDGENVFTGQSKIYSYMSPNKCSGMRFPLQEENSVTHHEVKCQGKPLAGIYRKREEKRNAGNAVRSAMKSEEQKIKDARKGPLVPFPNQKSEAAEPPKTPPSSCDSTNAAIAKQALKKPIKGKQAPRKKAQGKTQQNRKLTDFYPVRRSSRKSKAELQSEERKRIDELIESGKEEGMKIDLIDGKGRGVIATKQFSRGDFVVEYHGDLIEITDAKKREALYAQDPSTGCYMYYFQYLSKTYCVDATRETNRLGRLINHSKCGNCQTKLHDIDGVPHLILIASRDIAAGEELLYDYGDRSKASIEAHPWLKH

[3] = target: Tyrosine-protein kinase Fgr (Homo sapiens) (UniProt P09769); test: Selectivity interaction (KinomeScan (DiscoverX)) EUB0000229b FGR; conditions: at 10 µM
[4] = target: Casein kinase I isoform gamma-3 (Homo sapiens) (UniProt Q9Y6M4); test: Selectivity interaction (KinomeScan (DiscoverX)) EUB0000092b CSNK1G3; conditions: at 10 µM
[5] = target: Serine/threonine-protein kinase OSR1 (Homo sapiens) (UniProt O95747); test: Selectivity interaction (KinomeScan (DiscoverX)) EUB0000655a OXSR1; conditions: at 10 µM
[6] = target: Serine/threonine-protein kinase VRK2 (Homo sapiens) (UniProt Q86Y07); test: Selectivity interaction (KinomeScan (DiscoverX)) EUB0000666a VRK2; conditions: at 10 µM
[7] = target: Cyclin-dependent kinase 7 (Homo sapiens, UniProt P50613); test: Selectivity interaction (KINOMEscan (DiscoverX, competition-binding assay)) EUB0001868a CDK7
[8] = system: Proto-oncogene tyrosine-protein kinase receptor Ret (Homo sapiens), P07949 [S891A]; test: (§1) Selectivity interaction (Kinase panel (Z-LYTE Assay)) EUB0001632a RET; conditions: at 10 µM
[9] = system: Proto-oncogene tyrosine-protein kinase receptor Ret (Homo sapiens), P07949 [V804L]; test: as §1; conditions: at 10 µM
[10] = system: Proto-oncogene tyrosine-protein kinase receptor Ret (Homo sapiens), P07949 [Y791F]; test: as §1; conditions: at 10 µM
[11] = target: Proto-oncogene tyrosine-protein kinase receptor Ret (Homo sapiens, UniProt P07949); test: as §1; conditions: at 10 µM
[12] = target: T2, Mitogen-activated protein kinase kinase kinase 2 (Homo sapiens) (UniProt Q9Y2U5); test: Selectivity interaction (Kinase panel (Invitrogen)) EUB0000639a MAP3K2; conditions: at 200 nM
T2 sequence (whole entry): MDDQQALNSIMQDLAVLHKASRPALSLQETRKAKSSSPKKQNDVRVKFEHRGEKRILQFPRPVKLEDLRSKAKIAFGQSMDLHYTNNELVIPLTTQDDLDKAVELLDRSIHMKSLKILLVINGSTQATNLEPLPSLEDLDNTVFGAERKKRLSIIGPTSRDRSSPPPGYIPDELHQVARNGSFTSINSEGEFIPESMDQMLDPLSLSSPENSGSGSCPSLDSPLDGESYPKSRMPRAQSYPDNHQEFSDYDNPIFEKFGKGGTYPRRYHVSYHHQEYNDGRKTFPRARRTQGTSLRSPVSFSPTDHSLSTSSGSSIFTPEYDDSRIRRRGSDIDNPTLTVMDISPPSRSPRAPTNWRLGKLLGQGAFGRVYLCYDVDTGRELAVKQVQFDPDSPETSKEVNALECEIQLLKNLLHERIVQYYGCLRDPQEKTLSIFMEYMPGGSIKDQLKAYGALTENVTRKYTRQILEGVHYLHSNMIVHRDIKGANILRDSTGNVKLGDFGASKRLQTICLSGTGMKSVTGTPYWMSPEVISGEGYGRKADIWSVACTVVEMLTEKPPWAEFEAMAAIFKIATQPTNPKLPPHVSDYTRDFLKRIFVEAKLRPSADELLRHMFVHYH

[13] = target: T3, Membrane-associated tyrosine- and threonine-specific cdc2-inhibitory kinase (Homo sapiens) (UniProt Q99640); test: Selectivity interaction (KinomeScan (DiscoverX)) EUB0000607a PKMYT1; conditions: at 10 µM
T3 sequence (whole entry): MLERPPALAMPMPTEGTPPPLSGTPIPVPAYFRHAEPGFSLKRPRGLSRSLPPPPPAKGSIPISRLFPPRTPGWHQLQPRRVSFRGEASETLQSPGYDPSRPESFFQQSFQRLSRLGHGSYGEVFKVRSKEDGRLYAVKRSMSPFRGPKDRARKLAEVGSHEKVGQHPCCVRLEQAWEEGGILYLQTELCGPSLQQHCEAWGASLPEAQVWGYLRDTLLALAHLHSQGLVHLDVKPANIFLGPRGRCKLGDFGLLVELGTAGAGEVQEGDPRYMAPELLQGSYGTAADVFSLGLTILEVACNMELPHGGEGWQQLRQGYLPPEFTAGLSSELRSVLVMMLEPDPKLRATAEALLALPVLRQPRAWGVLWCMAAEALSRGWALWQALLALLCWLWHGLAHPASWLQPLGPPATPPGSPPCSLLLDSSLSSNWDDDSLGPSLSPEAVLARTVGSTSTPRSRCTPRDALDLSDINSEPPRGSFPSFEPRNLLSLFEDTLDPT

[14] = target: Protein-tyrosine kinase 2-beta (Homo sapiens) (UniProt Q14289); test: Selectivity interaction (KinomeScan (DiscoverX)) EUB0000595a PTK2B; conditions: at 10 µM
[15] = target: T4, Phosphatidylinositol 5-phosphate 4-kinase type-2 alpha (Homo sapiens) (UniProt P48426); conditions: at 1 µM
T4 sequence (whole entry): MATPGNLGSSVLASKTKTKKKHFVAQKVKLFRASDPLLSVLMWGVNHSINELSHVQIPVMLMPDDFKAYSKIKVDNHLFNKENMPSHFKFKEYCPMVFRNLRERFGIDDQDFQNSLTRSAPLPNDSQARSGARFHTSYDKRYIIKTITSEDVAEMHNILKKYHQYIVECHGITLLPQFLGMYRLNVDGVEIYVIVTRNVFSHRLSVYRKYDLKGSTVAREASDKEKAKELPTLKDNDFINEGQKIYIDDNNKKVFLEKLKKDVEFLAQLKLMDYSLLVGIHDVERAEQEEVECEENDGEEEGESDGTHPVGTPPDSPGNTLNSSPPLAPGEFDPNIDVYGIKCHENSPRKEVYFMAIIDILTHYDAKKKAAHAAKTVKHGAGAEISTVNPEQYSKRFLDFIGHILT

[16] = target: SRSF protein kinase 3 (Homo sapiens) (UniProt Q9UPE1); test: Selectivity interaction (KinomeScan (DiscoverX)) EUB0000618a SRPK3; conditions: at 10 µM
[17] = target: Histone-lysine N-methyltransferase ASH1L (Homo sapiens) (UniProt Q9NR48); conditions: at 1 µM

Chain of Proto-oncogene tyrosine-protein kinase receptor Ret (P07949 whole entry): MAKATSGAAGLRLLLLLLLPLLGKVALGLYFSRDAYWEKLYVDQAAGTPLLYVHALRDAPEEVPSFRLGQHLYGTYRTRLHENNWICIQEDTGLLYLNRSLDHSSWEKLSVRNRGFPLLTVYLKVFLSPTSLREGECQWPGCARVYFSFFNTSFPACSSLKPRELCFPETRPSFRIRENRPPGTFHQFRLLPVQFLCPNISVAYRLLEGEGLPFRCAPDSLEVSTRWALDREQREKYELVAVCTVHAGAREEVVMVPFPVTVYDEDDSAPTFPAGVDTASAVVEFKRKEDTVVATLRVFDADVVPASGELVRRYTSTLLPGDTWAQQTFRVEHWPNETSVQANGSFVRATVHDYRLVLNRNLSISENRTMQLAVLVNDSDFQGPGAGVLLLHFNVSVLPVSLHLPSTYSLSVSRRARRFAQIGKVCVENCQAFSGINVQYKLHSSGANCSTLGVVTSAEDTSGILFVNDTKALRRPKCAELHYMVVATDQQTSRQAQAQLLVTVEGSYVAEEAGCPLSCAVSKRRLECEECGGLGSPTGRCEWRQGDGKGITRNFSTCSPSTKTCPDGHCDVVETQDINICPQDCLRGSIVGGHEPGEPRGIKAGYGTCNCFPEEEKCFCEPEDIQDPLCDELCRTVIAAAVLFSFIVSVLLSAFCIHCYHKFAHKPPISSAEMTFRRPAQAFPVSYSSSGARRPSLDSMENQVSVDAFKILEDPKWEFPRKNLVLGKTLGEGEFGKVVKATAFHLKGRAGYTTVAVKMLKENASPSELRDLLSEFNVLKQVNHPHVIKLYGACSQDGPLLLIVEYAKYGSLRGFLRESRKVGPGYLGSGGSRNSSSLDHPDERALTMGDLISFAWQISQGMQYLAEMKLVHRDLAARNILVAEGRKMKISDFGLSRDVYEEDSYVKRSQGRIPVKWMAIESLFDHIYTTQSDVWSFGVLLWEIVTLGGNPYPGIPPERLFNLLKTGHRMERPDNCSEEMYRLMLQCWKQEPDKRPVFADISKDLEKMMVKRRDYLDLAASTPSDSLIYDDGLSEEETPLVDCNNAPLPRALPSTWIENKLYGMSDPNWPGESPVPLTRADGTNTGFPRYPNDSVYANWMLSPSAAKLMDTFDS
Chain of Cyclin-dependent kinase 7 (P50613 whole entry): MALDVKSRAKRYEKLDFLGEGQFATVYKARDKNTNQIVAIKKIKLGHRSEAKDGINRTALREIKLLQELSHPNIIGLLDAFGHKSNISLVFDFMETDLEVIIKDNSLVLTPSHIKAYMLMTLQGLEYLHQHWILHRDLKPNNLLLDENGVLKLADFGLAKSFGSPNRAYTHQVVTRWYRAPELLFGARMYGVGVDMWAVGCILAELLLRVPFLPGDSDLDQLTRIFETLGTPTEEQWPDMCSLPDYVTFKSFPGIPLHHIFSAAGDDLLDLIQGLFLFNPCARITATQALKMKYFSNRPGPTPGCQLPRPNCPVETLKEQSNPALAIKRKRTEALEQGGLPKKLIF
Chain of Proto-oncogene tyrosine-protein kinase receptor Ret (Homo sapiens), P07949 [Y791F] (P07949 whole entry Y791F): as the sequence (P07949 whole entry) above, with Y791F counted along it
Chain of Proto-oncogene tyrosine-protein kinase receptor Ret (Homo sapiens), P07949 [V804L] (P07949 whole entry V804L): as the sequence (P07949 whole entry) above, with V804L counted along it
Chain of SRSF protein kinase 3 (Homo sapiens) (Q9UPE1 whole entry): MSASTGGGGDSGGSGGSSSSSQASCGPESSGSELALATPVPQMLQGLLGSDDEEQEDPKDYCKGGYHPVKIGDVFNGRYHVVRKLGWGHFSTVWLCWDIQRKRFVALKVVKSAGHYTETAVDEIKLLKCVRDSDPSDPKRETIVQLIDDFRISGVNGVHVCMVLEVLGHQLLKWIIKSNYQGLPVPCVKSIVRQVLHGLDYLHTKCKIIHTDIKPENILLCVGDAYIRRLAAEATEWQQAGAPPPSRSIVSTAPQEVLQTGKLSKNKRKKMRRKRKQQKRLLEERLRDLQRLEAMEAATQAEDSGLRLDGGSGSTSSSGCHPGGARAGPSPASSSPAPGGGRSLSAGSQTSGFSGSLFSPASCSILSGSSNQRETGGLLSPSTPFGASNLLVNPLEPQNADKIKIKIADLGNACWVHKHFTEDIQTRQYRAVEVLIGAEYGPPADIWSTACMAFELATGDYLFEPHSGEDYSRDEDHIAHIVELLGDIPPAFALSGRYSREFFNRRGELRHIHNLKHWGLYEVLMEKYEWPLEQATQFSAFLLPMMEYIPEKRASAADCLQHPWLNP
Chain of Tyrosine-protein kinase Fgr (Homo sapiens) (P09769 2-529 limits assumed): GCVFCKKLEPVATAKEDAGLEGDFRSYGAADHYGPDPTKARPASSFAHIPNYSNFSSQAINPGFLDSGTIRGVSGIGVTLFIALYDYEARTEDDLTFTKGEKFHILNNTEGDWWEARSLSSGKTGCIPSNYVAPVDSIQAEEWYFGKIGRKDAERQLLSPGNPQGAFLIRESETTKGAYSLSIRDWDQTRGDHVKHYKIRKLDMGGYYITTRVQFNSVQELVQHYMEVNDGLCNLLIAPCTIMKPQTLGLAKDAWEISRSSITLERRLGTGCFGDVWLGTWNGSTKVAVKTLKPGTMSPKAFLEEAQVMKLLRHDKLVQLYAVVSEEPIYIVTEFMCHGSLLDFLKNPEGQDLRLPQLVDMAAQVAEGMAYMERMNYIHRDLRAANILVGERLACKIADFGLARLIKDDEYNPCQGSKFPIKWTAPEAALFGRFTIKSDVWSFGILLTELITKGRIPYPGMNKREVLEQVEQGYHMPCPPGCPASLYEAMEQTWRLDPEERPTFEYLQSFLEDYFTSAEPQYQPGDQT
Chain of Serine/threonine-protein kinase OSR1 (Homo sapiens) (O95747 2-527 limits assumed): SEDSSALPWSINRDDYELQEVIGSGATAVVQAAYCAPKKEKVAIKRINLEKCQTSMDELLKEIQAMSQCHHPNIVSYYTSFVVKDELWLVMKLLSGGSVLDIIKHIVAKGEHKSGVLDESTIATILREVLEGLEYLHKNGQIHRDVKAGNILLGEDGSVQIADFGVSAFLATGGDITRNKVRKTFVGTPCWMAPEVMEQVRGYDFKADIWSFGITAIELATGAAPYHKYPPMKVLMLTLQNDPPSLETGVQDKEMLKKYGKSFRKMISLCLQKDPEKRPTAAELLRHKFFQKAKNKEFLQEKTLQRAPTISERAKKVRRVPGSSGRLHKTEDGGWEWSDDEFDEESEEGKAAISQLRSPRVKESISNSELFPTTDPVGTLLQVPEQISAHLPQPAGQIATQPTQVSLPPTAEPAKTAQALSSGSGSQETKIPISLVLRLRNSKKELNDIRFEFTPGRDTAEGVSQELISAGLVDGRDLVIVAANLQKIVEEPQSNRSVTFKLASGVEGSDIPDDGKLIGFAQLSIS
Chain of Proto-oncogene tyrosine-protein kinase receptor Ret (Homo sapiens), P07949 [S891A] (P07949 whole entry S891A): as the sequence (P07949 whole entry) above, with S891A counted along it
Chain of Protein-tyrosine kinase 2-beta (Homo sapiens) (Q14289 whole entry, looked up): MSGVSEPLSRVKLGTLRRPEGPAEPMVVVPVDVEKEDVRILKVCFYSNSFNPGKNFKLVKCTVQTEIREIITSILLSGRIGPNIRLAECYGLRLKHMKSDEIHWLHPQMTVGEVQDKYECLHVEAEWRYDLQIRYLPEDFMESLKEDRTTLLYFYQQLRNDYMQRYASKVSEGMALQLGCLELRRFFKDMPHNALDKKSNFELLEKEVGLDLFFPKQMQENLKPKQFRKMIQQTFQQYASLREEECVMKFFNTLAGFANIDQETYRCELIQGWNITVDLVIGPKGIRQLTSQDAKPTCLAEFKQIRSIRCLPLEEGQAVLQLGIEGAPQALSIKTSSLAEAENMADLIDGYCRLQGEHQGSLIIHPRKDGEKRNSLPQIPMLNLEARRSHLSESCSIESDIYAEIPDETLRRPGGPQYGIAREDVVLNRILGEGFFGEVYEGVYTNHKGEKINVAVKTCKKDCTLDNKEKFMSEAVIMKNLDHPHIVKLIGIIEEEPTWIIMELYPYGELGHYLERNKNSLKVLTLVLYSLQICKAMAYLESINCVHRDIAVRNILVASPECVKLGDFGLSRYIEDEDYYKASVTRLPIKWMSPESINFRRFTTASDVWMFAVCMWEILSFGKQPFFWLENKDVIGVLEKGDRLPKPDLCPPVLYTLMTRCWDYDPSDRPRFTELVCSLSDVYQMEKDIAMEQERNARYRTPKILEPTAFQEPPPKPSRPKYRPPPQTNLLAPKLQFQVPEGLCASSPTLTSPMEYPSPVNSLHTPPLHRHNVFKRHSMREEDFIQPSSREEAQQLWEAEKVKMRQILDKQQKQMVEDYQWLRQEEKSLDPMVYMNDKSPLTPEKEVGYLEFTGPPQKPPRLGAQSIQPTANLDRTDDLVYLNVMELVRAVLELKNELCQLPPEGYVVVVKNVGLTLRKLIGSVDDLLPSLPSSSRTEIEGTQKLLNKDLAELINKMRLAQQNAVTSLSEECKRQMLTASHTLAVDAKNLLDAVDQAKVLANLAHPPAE
Chain of Serine/threonine-protein kinase VRK2 (Homo sapiens) (Q86Y07 whole entry): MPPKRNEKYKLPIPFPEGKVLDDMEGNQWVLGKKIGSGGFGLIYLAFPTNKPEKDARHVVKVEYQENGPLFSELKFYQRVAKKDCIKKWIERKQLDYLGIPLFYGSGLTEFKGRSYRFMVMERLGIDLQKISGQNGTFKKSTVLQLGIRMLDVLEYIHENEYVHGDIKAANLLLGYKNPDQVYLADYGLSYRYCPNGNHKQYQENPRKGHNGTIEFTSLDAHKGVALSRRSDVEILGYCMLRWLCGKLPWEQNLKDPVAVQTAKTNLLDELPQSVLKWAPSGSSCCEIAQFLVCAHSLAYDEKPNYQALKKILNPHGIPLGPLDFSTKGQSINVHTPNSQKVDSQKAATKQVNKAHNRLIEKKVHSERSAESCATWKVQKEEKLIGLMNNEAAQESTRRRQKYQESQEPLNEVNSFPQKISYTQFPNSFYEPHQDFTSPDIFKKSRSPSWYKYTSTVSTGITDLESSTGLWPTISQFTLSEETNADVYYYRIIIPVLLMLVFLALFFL

Compound: CCN(CC)CCCCNc1ncc2cc(-c3cc(OC)cc(OC)c3)c(NC(=O)NC(C)(C)C)nc2n1
- % of control [1]: 100%

Compound: COCCN1CCC(c2cc(CN(C)C(=O)c3cccc(Oc4ccccc4)c3)ccn2)CC1
- % activity ([2]; at 1 µM): > 95%
- % activity ([2]; at 10 µM): > 85%

Compound: COc1cc(N(C)c2ccnc3ccc(C(F)(F)F)cc23)cc(OC)c1OC
- % binding [3]: 97%

Compound: CCC(=O)N1CCN(c2ccc(-n3c(=O)ccc4cnc5ccc(-c6cnc7ccccc7c6)cc5c43)cc2C(F)(F)F)CC1
- % of control [4]: 100%

Compound: CN(C)CCOc1ccc(-c2nc(-c3ccncc3)c(-c3ccc4c(c3)CC/C4=N\O)[nH]2)cc1
- % of control [5]: 100%

Compound: O=C(NOC[C@H](O)CO)c1ccc(F)c(F)c1Nc1ccc(I)cc1F
- % of control [6]: 100%

Compound: Cc1cc(-c2ccnc(Nc3cnn(C)c3)n2)ccc1CNC(=O)N1CC(OC(C)C)C1
- Kd [7]: 0.88 µM

Compound: Cn1cc(-n2cnc3c(NCc4nc5cc(Cl)c(Cl)cc5[nH]4)nc(N4CCOCC4)nc32)cn1
- % of control [8]: 2.48%
- % of control [9]: 6.91%
- % of control [10]: 6.92%
- % of control [11]: 12%

Compound: CC[C@@H]1[C@H](F)C(=O)N[C@@H]1COc1nccc2cc(C(N)=O)c(OC)cc12 [ZIMLOVISERTIB]
- % of inhibition [12]: -4.03%

Compound: CNC(=O)Nc1ccc(-c2nc(N3CC4CCC(C3)O4)c3cnn(C4CCC5(CC4)OCCO5)c3n2)cc1
- % of control [13]: 75%

Compound: COCC(=O)NC/C=C/c1ccc2ncnc(Nc3ccc(Oc4ccc(C)nc4)c(C)c3)c2c1 [CP-724714]
- % of control [14]: 80%

Compound: CC[C@@H](Nc1c(C#N)c(-c2ccc(-c3cccc(C)c3F)cc2)nc2cnccc12)C(=O)O [BAY-091]
- % of inhibition [15]: 142%

Compound: O[C@H]1CC[C@H](Nc2ncc3nc(Nc4c(F)cc(F)cc4F)n([C@H]4CCOC4)c3n2)CC1
- % of control [16]: 92%

Compound: CNCCN1CCC(c2cc(CN(C)C(=O)c3cccc(Oc4ccccc4)c3)ccn2)CC1
- % activity [17]: > 90%
